Test results published in ChEMBL document CHEMBL1201862, “PubChem BioAssay data set” (2004).
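96-well plates; 48 h exposure; 5 concentrations. Endpoints by linear interpolation between flanking doses. Not reached: highest tested concentration assigned. The concentration for 50% growth inhibition is given as GI50.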 Calls of active or inactive are those of the source. Cut-off read from the data, not from the text of the source: active = GI50 up to about 1.1 µM and inactive = higher.

Key:
Test in all cases: NCI-60 cell line screen, 48 h
NCI/ADR-RES = tested on: NCI/ADR-RES
DU-145 = tested on: DU-145
OVCAR-5 = tested on: OVCAR-5
SF-295 = tested on: SF-295
SR = tested on: SR
MCF7 = tested on: MCF7
A498 = tested on: A498
OVCAR-8 = tested on: OVCAR-8
HOP-92 = tested on: HOP-92
NCI-H226 = tested on: NCI-H226
U-251 = tested on: U-251
Malme-3M = tested on: Malme-3M
Hs-578T = tested on: Hs-578T
SW-620 = tested on: SW-620
MDA-N = tested on: MDA-N
MDA-MB-435 = tested on: MDA-MB-435
SK-MEL-2 = tested on: SK-MEL-2
K562 = tested on: K562
786-0 = tested on: 786-0
UACC-62 = tested on: UACC-62
ACHN = tested on: ACHN
NCI-H522 = tested on: NCI-H522
SNB-19 = tested on: SNB-19
SN12C = tested on: SN12C
HCT-116 = tested on: HCT-116
SF-539 = tested on: SF-539
KM12 = tested on: KM12
HOP-62 = tested on: HOP-62
HCC 2998 = tested on: HCC 2998
M14 = tested on: M14
BT-549 = tested on: BT-549
SF-268 = tested on: SF-268
SK-MEL-5 = tested on: SK-MEL-5
RPMI-8226 = tested on: RPMI-8226
EKVX = tested on: EKVX
NCI-H460 = tested on: NCI-H460
A549 = tested on: A549
COLO 205 = tested on: COLO 205
LOX IMVI = tested on: LOX IMVI
UACC-257 = tested on: UACC-257
MOLT-4 = tested on: MOLT-4
IGROV-1 = tested on: IGROV-1
HCT-15 = tested on: HCT-15
TK-10 = tested on: TK-10
UO-31 = tested on: UO-31
NCI-H23 = tested on: NCI-H23
CCRF-CEM = tested on: CCRF-CEM
CAKI-1 = tested on: CAKI-1
SNB-75 = tested on: SNB-75
HT-29 = tested on: HT-29
HL-60 = tested on: HL-60
T47D = tested on: T47D
SK-MEL-28 = tested on: SK-MEL-28
OVCAR-4 = tested on: OVCAR-4
PC-3 = tested on: PC-3
OVCAR-3 = tested on: OVCAR-3
MDA-MB-231 = tested on: MDA-MB-231
SK-OV-3 = tested on: SK-OV-3
RXF 393 = tested on: RXF 393

SMILES: [N-]=[N+]=Nc1c([N+](=O)[O-])c(=O)n2c3c(cccc13)CCC2
- GI50 (NCI/ADR-RES): 20.6 µM (inactive)
- GI50 (DU-145): 16.9 µM (inactive)
- GI50 (OVCAR-5): 16.4 µM (inactive)
- GI50 (SF-295): > 65.5 µM (inactive)
- GI50 (SR): 2.27 µM (inactive)
- GI50 (MCF7): 11 µM (inactive)
- GI50 (A498): 27 µM (inactive)
- GI50 (OVCAR-8): 17.3 µM (inactive)
- GI50 (HOP-92): 14 µM (inactive)
- GI50 (NCI-H226): 24.2 µM (inactive)
- GI50 (U-251): 17.5 µM (inactive)
- GI50 (Malme-3M): 1.62 µM (inactive)
- GI50 (Hs-578T): 26.2 µM (inactive)
- GI50 (SW-620): 3.9 µM (inactive)
- GI50 (MDA-N): 14.4 µM (inactive)
- GI50 (MDA-MB-435): 17.3 µM (inactive)
- GI50 (SK-MEL-2): 16.6 µM (inactive)
- GI50 (K562): 1.75 µM (inactive)
- GI50 (786-0): 17.1 µM (inactive)
- GI50 (UACC-62): 14 µM (inactive)
- GI50 (ACHN): 17.8 µM (inactive)
- GI50 (NCI-H522): 2.08 µM (inactive)
- GI50 (SNB-19): > 67.8 µM (inactive)
- GI50 (SN12C): 9.77 µM (inactive)
- GI50 (HCT-116): 15.6 µM (inactive)
- GI50 (SF-539): 23.2 µM (inactive)
- GI50 (KM12): 17 µM (inactive)
- GI50 (HOP-62): > 100 µM (inactive)
- GI50 (HCC 2998): 19.1 µM (inactive)
- GI50 (M14): 10.8 µM (inactive)
- GI50 (BT-549): 18.4 µM (inactive)
- GI50 (SF-268): 13.6 µM (inactive)
- GI50 (SK-MEL-5): 16.7 µM (inactive)
- GI50 (RPMI-8226): 3.15 µM (inactive)
- GI50 (EKVX): 19.4 µM (inactive)
- GI50 (NCI-H460): 17.8 µM (inactive)
- GI50 (A549): 35.9 µM (inactive)
- GI50 (COLO 205): 6.28 µM (inactive)
- GI50 (LOX IMVI): 14.4 µM (inactive)
- GI50 (UACC-257): 8.15 µM (inactive)
- GI50 (MOLT-4): 2.48 µM (inactive)
- GI50 (IGROV-1): 20.8 µM (inactive)
- GI50 (HCT-15): 6.44 µM
- GI50 (TK-10): 20 µM (inactive)
- GI50 (UO-31): 15.2 µM (inactive)
- GI50 (NCI-H23): 16.1 µM (inactive)
- GI50 (CCRF-CEM): 1.97 µM (inactive)
- GI50 (CAKI-1): 13.2 µM (inactive)
- GI50 (SNB-75): 19.4 µM (inactive)
- GI50 (HT-29): 15 µM (inactive)
- GI50 (HL-60): 2.2 µM (inactive)
- GI50 (T47D): 5.42 µM (inactive)
- GI50 (SK-MEL-28): 5.62 µM (inactive)
- GI50 (OVCAR-4): 13.7 µM (inactive)
- GI50 (PC-3): 16.9 µM (inactive)
- GI50 (OVCAR-3): 17 µM (inactive)
- GI50 (MDA-MB-231): 10.6 µM (inactive)
- GI50 (SK-OV-3): > 100 µM (inactive)

SMILES: COC(=O)C(=O)C(C(=O)C(=O)Nc1ccccc1C(N)=O)c1nc2ccc(Cl)cc2nc1O (stereo unspecified)
- GI50 (NCI/ADR-RES): > 100 µM (inactive)
- GI50 (DU-145): > 100 µM (inactive)
- GI50 (OVCAR-5): > 100 µM (inactive)
- GI50 (SF-295): > 100 µM (inactive)
- GI50 (SR): > 100 µM (inactive)
- GI50 (MCF7): > 100 µM (inactive)
- GI50 (A498): > 100 µM (inactive)
- GI50 (OVCAR-8): > 100 µM (inactive)
- GI50 (HOP-92): > 100 µM (inactive)
- GI50 (NCI-H226): > 100 µM (inactive)
- GI50 (U-251): > 100 µM (inactive)
- GI50 (Hs-578T): 46.5 µM (inactive)
- GI50 (SW-620): > 100 µM (inactive)
- GI50 (MDA-N): > 100 µM (inactive)
- GI50 (MDA-MB-435): > 100 µM (inactive)
- GI50 (SK-MEL-2): > 100 µM (inactive)
- GI50 (K562): > 100 µM (inactive)
- GI50 (786-0): > 100 µM (inactive)
- GI50 (UACC-62): > 100 µM (inactive)
- GI50 (ACHN): > 100 µM (inactive)
- GI50 (SNB-19): > 100 µM (inactive)
- GI50 (SN12C): > 100 µM (inactive)
- GI50 (HCT-116): > 100 µM (inactive)
- GI50 (SF-539): > 100 µM (inactive)
- GI50 (KM12): > 100 µM (inactive)
- GI50 (HCC 2998): > 100 µM (inactive)
- GI50 (M14): > 100 µM (inactive)
- GI50 (BT-549): > 100 µM (inactive)
- GI50 (SF-268): > 100 µM (inactive)
- GI50 (SK-MEL-5): > 100 µM (inactive)
- GI50 (RPMI-8226): > 100 µM (inactive)
- GI50 (NCI-H460): > 100 µM (inactive)
- GI50 (A549): > 100 µM (inactive)
- GI50 (COLO 205): > 100 µM (inactive)
- GI50 (LOX IMVI): > 100 µM (inactive)
- GI50 (UACC-257): > 100 µM (inactive)
- GI50 (MOLT-4): > 100 µM (inactive)
- GI50 (HCT-15): > 100 µM
- GI50 (UO-31): > 100 µM (inactive)
- GI50 (NCI-H23): > 100 µM (inactive)
- GI50 (CCRF-CEM): > 100 µM (inactive)
- GI50 (CAKI-1): 82.8 µM (inactive)
- GI50 (SNB-75): 33.7 µM (inactive)
- GI50 (HT-29): > 100 µM (inactive)
- GI50 (HL-60): > 100 µM (inactive)
- GI50 (T47D): > 100 µM (inactive)
- GI50 (SK-MEL-28): > 100 µM (inactive)
- GI50 (RXF 393): > 100 µM (inactive)
- GI50 (OVCAR-4): > 100 µM (inactive)
- GI50 (PC-3): > 100 µM (inactive)
- GI50 (OVCAR-3): > 100 µM (inactive)
- GI50 (MDA-MB-231): > 100 µM (inactive)
- GI50 (SK-OV-3): > 100 µM (inactive)
